Test results reported in paper PMC11160566 (ACS infectious diseases, 2024).

How the values were obtained:
GES-5 carbapenemase [1] = biological target: T1, GES-5 carbapenemase (Klebsiella pneumoniae, UniProt Q09HD0); test: X-ray crystal structure of acyl-enzyme; format: binding
GES-5 carbapenemase [2] = biological target: T1, GES-5 carbapenemase; test: reporter substrate hydrolysis, absorbance at […] nm; format: biochemical

T1 sequence (Q09HD0 19-287): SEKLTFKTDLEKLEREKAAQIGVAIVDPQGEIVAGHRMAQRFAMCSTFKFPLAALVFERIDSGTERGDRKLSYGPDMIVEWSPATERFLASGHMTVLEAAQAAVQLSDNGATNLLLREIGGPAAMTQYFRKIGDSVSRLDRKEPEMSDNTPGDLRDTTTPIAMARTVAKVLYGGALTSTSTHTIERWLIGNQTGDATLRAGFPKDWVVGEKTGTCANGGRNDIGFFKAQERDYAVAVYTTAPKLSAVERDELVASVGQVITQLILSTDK

Compound	X-ray crystal structure of acyl-enzyme (1.62 Å) (GES-5 carbapenemase [1])	reporter substrate hydrolysis, absorbance at 500 nm (GES-5 carbapenemase [2])
C[C@@H](O)[C@H]1C(=O)N2C(C(=O)O)=C(S[C@@H]3CN[C@H](C(=O)N(C)C)C3)[C@H](C)[C@H]12 [MEM, meropenem]	The 3D structures of the acyl-enzyme complexes of GES-5-meropenem and GES-5-NA-1-157 were determined by X-ray crystallography	
O=C(Cc1cccs1)N[C@@H]1C(=O)N2C(C(=O)O)=C(/C=C/c3ccc([N+](=O)[O-])cc3[N+](=O)[O-])CS[C@H]12 [nitrocefin]		The progress curves for nitrocefin hydrolysis by GES-5 in the presence of NA-1-157
